The record followed here is ChEMBL document CHEMBL1152297, “Quantitative three dimensional structure linear interaction energy model of 5'-O-[N-(salicyl)sulfamoyl]adenosine and the aryl acid adenylating enzyme MbtA” (J Med Chem, 2008).

For this assay, the target named is T1, Salicyl-AMP ligase / salicyl-S-ArCP synthetase (Mycobacterium tuberculosis, UniProt P71716).
T1 sequence (P71716 whole entry): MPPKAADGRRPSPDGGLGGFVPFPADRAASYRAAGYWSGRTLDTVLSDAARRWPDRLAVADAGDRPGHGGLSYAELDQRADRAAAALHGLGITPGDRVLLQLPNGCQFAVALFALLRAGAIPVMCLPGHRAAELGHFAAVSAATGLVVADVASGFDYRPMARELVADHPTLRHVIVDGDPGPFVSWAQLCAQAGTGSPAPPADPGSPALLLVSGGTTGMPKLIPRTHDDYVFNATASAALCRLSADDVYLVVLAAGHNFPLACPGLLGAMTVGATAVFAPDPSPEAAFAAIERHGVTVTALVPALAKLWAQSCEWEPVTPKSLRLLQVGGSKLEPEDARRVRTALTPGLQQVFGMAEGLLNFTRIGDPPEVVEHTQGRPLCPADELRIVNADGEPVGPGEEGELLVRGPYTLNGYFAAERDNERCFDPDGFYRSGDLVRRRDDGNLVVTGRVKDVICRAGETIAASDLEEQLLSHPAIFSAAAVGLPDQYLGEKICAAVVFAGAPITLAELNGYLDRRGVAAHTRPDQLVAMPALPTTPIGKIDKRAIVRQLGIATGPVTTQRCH
Description: Inhibition of Mycobacterium tuberculosis BAG RV143 MbtA expressed in Escherichia coli BL21 (DE3) assessed as ATP-[32P]PPi exchange by liquid scintillation counting. The conditions noted are these: read-out: Ki(app).
For `Nc1ncnc2c1ncn2[C@@H]1O[C@H](CNS(=O)(=O)/C=C/c2ccccc2O)[C@@H](O)[C@H]1O`, the Ki came out at 143000 nM.

With `Nc1ncnc2c1ncn2[C@@H]1O[C@H](COS(=O)(=O)CC(=O)c2ccccc2O)[C@@H](O)[C@H]1O`, the Ki was found to be 3300 nM.

With `Nc1ncnc2c1ncn2[C@@H]1O[C@H](CNS(=O)(=O)NC(=O)c2ccccc2O)[C@@H](O)[C@H]1O`, the Ki was 3.8 nM.

On to `Nc1ncnc2c1ncn2[C@@H]1C[C@H](COS(=O)(=O)NC(=O)c2ccccc2O)[C@@H](O)[C@H]1O`, for which the Ki worked out at 2.3 nM.

For the compound `Nc1ncnc2c1ncn2[C@H]1C[C@H](O)[C@@H](COS(=O)(=O)NC(=O)c2ccccc2O)O1`, the Ki amounted to 3.5 nM.

`Nc1ncnc2c1ncn2[C@@H]1O[C@H](COS(=O)(=O)NC(=O)c2ccccc2O)C[C@H]1O`: the Ki was 3.2 nM.

For the compound `Nc1ncnc2c1ncn2[C@H]1C=C[C@@H](COS(=O)(=O)NC(=O)c2ccccc2O)C1`, the Ki is 830 nM.

In the case of `Nc1ncnc2c1ncn2[C@H]1CC[C@@H](COS(=O)(=O)NC(=O)c2ccccc2O)C1`, the Ki stood at 61 nM.

For `Nc1ncnc2c1ncn2[C@@H]1O[C@H](COS(=O)(=O)NCc2ccccc2O)[C@@H](O)[C@H]1O`, the Ki worked out at 410 nM.
